Data as given in US20170050957A1, “4-AMINO-6-(HETEROCYCLIC)PICOLINATES AND 6-AMINO-2-(HETEROCYCLIC)PYRIMIDINE-4-CARBOXYLATES AND THEIR USE AS HERBICIDES” (Dow AgroSciences LLC, priority 2013, published 2017).
Where two headings read alike, the source gives them in different places.

What was measured:
[1] = test system: Key Grass and Sedge Weeds as well as Grass Crops; experiment: Post-emergent Test II herbicidal activity (Table 16); assay type: in vivo; details: post-emergence, 336 h, 14 d; for pest or weed control at 35 g/ha: 35 g ai/ha; for pest or weed control at 70 g/ha: 70 g ai/ha; for pest or weed control at 140 g/ha: 140 g ai/ha
Summary of the method: (§1)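 Herbicidal effect scored as percent visual injury, 14 d after post-emergent application. Spray solutions contained acetone, DMSO, isopropyl alcohol, crop oil concentrate and surfactant, applied at 187 L/ha to young plants (1-2 true leaves).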

[2] = test system: Key Broadleaf Weed and Crop Species; experiment: Post-emergent Test II herbicidal activity (Table 15); assay type: in vivo; details: post-emergence, 336 h, 14 d; for pest or weed control at 35 g/ha: 35 g ai/ha; for pest or weed control at 70 g/ha: 70 g ai/ha; for pest or weed control at 140 g/ha: 140 g ai/ha
Summary of the method: as §1

[3] = Cyperus esculentus, yellow nutsedge (Cyperus esculentus), read-out: Visual Growth Reduction (%) 14 Days After Application, CYPES
[4] = Echinochloa crus-galli, barnyardgrass (Echinochloa crus-galli), read-out: Visual Growth Reduction (%) 14 Days After Application, ECHCG
[5] = Oryza sativa, rice (Oryza sativa), read-out: Visual Growth Reduction (%) 14 Days After Application, ORYSA
[6] = Setaria faberi, giant foxtail (Setaria faberi), read-out: Visual Growth Reduction (%) 14 Days After Application, SETFA
[7] = Triticum aestivum, wheat, spring (Triticum aestivum), read-out: Visual Growth Reduction (%) 14 Days After Application, TRZAS
[8] = Zea mays, maize, corn (Zea mays), read-out: Visual Growth Reduction (%) 14 Days After Application, ZEAMX
[9] = Abutilon theophrasti, velvetleaf (Abutilon theophrasti), read-out: Visual Growth Reduction (%) 14 Days After Application, ABUTH
[10] = Amaranthus retroflexus, redroot pigweed (Amaranthus retroflexus), read-out: Visual Growth Reduction (%) 14 Days After Application, AMARE
[11] = Brassica napus, oilseed rape, canola (Brassica napus), read-out: Visual Growth Reduction (%) 14 Days After Application, BRSNN
[12] = Chenopodium album, lambsquarters (Chenopodium album), read-out: Visual Growth Reduction (%) 14 Days After Application, CHEAL
[13] = Euphorbia heterophylla, wild poinsettia (Euphorbia heterophylla), read-out: Visual Growth Reduction (%) 14 Days After Application, EPHHL
[14] = Helianthus annuus, sunflower (Helianthus annuus), read-out: Visual Growth Reduction (%) 14 Days After Application, HELAN

**Q.** What does the source list for `COC(=O)c1nc(-c2ccc3cc[nH]c3c2)nc(N)c1OC` [Compound 1.32]?
**A.** pest or weed control at 35 g/ha [1, 3]: 0 to 29%; pest or weed control at 70 g/ha [1, 3]: 0 to 29%; pest or weed control at 140 g/ha [1, 3]: 0 to 29%; pest or weed control at 35 g/ha [1, 4]: 0 to 29%; pest or weed control at 70 g/ha [1, 4]: 0 to 29%; pest or weed control at 140 g/ha [1, 4]: 0 to 29%; pest or weed control at 35 g/ha [1, 5]: 0 to 29%; pest or weed control at 70 g/ha [1, 5]: 0 to 29%; pest or weed control at 140 g/ha [1, 5]: 0 to 29%; pest or weed control at 35 g/ha [1, 6]: 0 to 29%; pest or weed control at 70 g/ha [1, 6]: 0 to 29%; pest or weed control at 140 g/ha [1, 6]: 0 to 29%; pest or weed control at 35 g/ha [1, 7]: 0 to 29%; pest or weed control at 70 g/ha [1, 7]: 0 to 29%; pest or weed control at 140 g/ha [1, 7]: 0 to 29%; pest or weed control at 35 g/ha [1, 8]: 0 to 29%; pest or weed control at 70 g/ha [1, 8]: 0 to 29%; pest or weed control at 140 g/ha [1, 8]: 0 to 29%; melting point: 190 to 191 °C; pest or weed control at 35 g/ha [2, 9]: 0 to 29%; pest or weed control at 70 g/ha [2, 9]: 0 to 29%; pest or weed control at 140 g/ha [2, 9]: 0 to 29%; pest or weed control at 35 g/ha [2, 10]: 0 to 29%; pest or weed control at 70 g/ha [2, 10]: 30 to 44%; pest or weed control at 140 g/ha [2, 10]: 60 to 74%; pest or weed control at 35 g/ha [2, 11]: 30 to 44%; pest or weed control at 70 g/ha [2, 11]: 45 to 59%; pest or weed control at 140 g/ha [2, 11]: 60 to 74%; pest or weed control at 35 g/ha [2, 12]: 0 to 29%; pest or weed control at 70 g/ha [2, 12]: 0 to 29%; pest or weed control at 140 g/ha [2, 12]: 75 to 84%; pest or weed control at 35 g/ha [2, 13]: 0 to 29%; pest or weed control at 70 g/ha [2, 13]: 60 to 74%; pest or weed control at 140 g/ha [2, 13]: 85 to 94%; pest or weed control at 35 g/ha [2, 14]: 45 to 59%; pest or weed control at 70 g/ha [2, 14]: 60 to 74%; pest or weed control at 140 g/ha [2, 14]: 75 to 84%

**Q.** Which pest or weed control at 35 g/ha [1, 3] does the source give for `Nc1cc(-c2ccc3cc[nH]c3c2)nc(C(=O)O)c1Cl` [Compound 1.22] here?
**A.** 0 to 29%

**Q.** What about the pest or weed control at 70 g/ha [1, 3] of the same compound?
**A.** 0 to 29%

**Q.** What about the pest or weed control at 140 g/ha [1, 3] of the same compound?
**A.** 0 to 29%

**Q.** And the pest or weed control at 35 g/ha [1, 4]?
**A.** 0 to 29%

**Q.** What about the pest or weed control at 70 g/ha [1, 4] of the same compound?
**A.** 0 to 29%

**Q.** What about the pest or weed control at 140 g/ha [1, 4] of the same compound?
**A.** 0 to 29%

**Q.** What about the pest or weed control at 35 g/ha [1, 5] of the same compound?
**A.** 0 to 29%

**Q.** What about the pest or weed control at 70 g/ha [1, 5] of the same compound?
**A.** 0 to 29%

**Q.** And the pest or weed control at 140 g/ha [1, 5]?
**A.** 0 to 29%

**Q.** And the pest or weed control at 35 g/ha [1, 6]?
**A.** 0 to 29%

**Q.** What about the pest or weed control at 70 g/ha [1, 6] of the same compound?
**A.** 60 to 74%

**Q.** And the pest or weed control at 140 g/ha [1, 6]?
**A.** 85 to 94%

**Q.** And the pest or weed control at 35 g/ha [1, 7]?
**A.** 0 to 29%

**Q.** What about the pest or weed control at 70 g/ha [1, 7] of the same compound?
**A.** 0 to 29%

**Q.** And the pest or weed control at 140 g/ha [1, 7]?
**A.** 0 to 29%

**Q.** What about the pest or weed control at 35 g/ha [1, 8] of the same compound?
**A.** 0 to 29%

**Q.** What about the pest or weed control at 70 g/ha [1, 8] of the same compound?
**A.** 0 to 29%

**Q.** And the pest or weed control at 140 g/ha [1, 8]?
**A.** 0 to 29%

**Q.** What about the melting point of the same compound?
**A.** 172 to 174 °C

**Q.** What about the pest or weed control at 35 g/ha [2, 9] of the same compound?
**A.** 0 to 29%

**Q.** What about the pest or weed control at 70 g/ha [2, 9] of the same compound?
**A.** 0 to 29%

**Q.** What about the pest or weed control at 140 g/ha [2, 9] of the same compound?
**A.** 0 to 29%

**Q.** And the pest or weed control at 35 g/ha [2, 10]?
**A.** 75 to 84%

**Q.** And the pest or weed control at 70 g/ha [2, 10]?
**A.** 75 to 84%

**Q.** What about the pest or weed control at 140 g/ha [2, 10] of the same compound?
**A.** 85 to 94%

**Q.** What about the pest or weed control at 35 g/ha [2, 11] of the same compound?
**A.** 45 to 59%

**Q.** What about the pest or weed control at 70 g/ha [2, 11] of the same compound?
**A.** 60 to 74%

**Q.** And the pest or weed control at 140 g/ha [2, 11]?
**A.** 60 to 74%

**Q.** And the pest or weed control at 35 g/ha [2, 12]?
**A.** 0 to 29%

**Q.** And the pest or weed control at 70 g/ha [2, 12]?
**A.** 0 to 29%

**Q.** And the pest or weed control at 140 g/ha [2, 12]?
**A.** 0 to 29%

**Q.** What about the pest or weed control at 35 g/ha [2, 13] of the same compound?
**A.** 45 to 59%

**Q.** And the pest or weed control at 70 g/ha [2, 13]?
**A.** 75 to 84%

**Q.** And the pest or weed control at 140 g/ha [2, 13]?
**A.** 85 to 94%

**Q.** And the pest or weed control at 35 g/ha [2, 14]?
**A.** 75 to 84%

**Q.** And the pest or weed control at 70 g/ha [2, 14]?
**A.** 85 to 94%

**Q.** And the pest or weed control at 140 g/ha [2, 14]?
**A.** 85 to 94%
